# Publication PMC8691714 (Cancer Research Communications, 2021)
# Marks after values point to notes of the source that are not given here.
# Key:
# [1] = set-up: method as in earlier work; details: PBPK model parameter, ref [17, 18] and Drugbank, cited from earlier work
# [2] = In vivo pharmacokinetic study in mice, oral ibrutinib (plasma, LC-MS/MS)
# Method: (§1) Experiments were performed with male and female mice from inbred wild-type strains (FVB, C57BL/6, DBA) or with age- and sex-matched genetically engineered mice with a deficiency of the Cyp3a locus [(8 genes; FVB.129P2-Cyp3a13^tm1Ahs Del (5Cyp3a57-Cyp3a59)1Ahs); ref. [16]; CYP3A^−/−], a deficiency of the intestinal transporter OATP2B1 (ref. [17]; OATP2B1 ^−/−), or the hepatic transporter OATP1B2 (ref. [18]; OATP1B2 ^−/−). […] The studies were approved by the University Laboratory Animal Resources Animal Care and Use Committee at The Ohio State University (Columbus, OH). […] For in vivo studies, drugs were prepared in standard vehicles ([19, 20]). Details regarding the preparation of drugs are provided in the Supplementary Methods.
# (§2) Pharmacokinetic studies were performed as described previously ([21]). Further details are provided in the Supplementary Methods.
# (§3) The lower limit of quantification was 5 ng/mL, using 5-μL sample volumes. Details regarding the analytic method are provided in the Supplementary Methods.
# (§4) Ketoconazole was prepared for oral administration as a 10-mg/mL suspension in PEG400, and cobicistat as a 6-mg/mL suspension in corn oil.
# (§5) Pharmacokinetic studies were performed as previously described.
# The analytical equipment consisted of a Vanquish UHPLC system, a TSQ Quantum Ultra triple quadrupole mass spectrometer from Thermo Fisher Scientific, and Thermo Trace Finder General Quan system software (version 3.3). An Accucore Vanquish C18 column (100 × 2.1 mm, dp = 1.5 μm; Thermo Fisher Scientific) was protected by a corresponding XBridgeBEH C18, 5-μm guard column. The injection volume of sample was 5.0 μL. The temperature of the autosampler rack was 4 °C, and the temperature of the column was 40 °C. Mobile phase A consisted of water with 0.1% (v/v) formic acid and mobile phase B consisted of acetonitrile: methanol (1:3) with 0.1% (v/v) formic acid. The total run time was 5 min. The mobile phase was delivered at a flow rate of 0.4 mL/min, and the optimized gradient contained time-varying amounts of mobile phase B, as follows: 0-0.5 min, 10% B; 0.5-1.5 min, 95% B; 1.5-2.9 min, 95% B; 2.9-3.0 min, 10% B; and 3.0-5.0 min, 10% B. The mass spectrometric assay settings included a positive voltage applied to the ESI capillary of 3500 V, a capillary temperature of 342 °C, and a vaporizer temperature of 358 °C. Argon was used a collision gas at a pressure of 1.5 mTorr. […] For sample extraction by protein precipitation, 5 µL of plasma, 5 µL of microsomal suspension, or 10 µL of homogenized tissue were added to a tube containing 60 µL of internal standard solution and 20 µL of methanol. Samples were then vortex-mixed, centrifuged at 13,000 rpm for 9.5 min, and supernatants collected and stored frozen until analysis. […] The lower limit of quantification was 5 ng/mL, using 5-µL sample volumes.
# [3] = In vivo pharmacokinetic study in mice, intravenous ibrutinib (plasma); details: female wild-type FVB mice, ibrutinib 1 mg/kg IV; for PCI-45227 AUC(0-last) / PCI-45227 Cmax: mean (SD)
# Method: as §1, §2, §3, §4, §5
# [4] = population PK model estimate, mice
# [5] = set-up: method as in earlier work; details: PBPK model parameter, ref [17, 18] and Drugbank, cited from earlier work; remark: listed apart in the source
# [6] = female CYP3A-/- mice, ibrutinib 10 mg/kg oral, no cotreatment, mean (SE)
# [7] = female OATP1B2(-/-) mice, ibrutinib 10 mg/kg PO, no co-treatment, mean (SD)
# [8] = female OATP2B1(-/-) mice, ibrutinib 10 mg/kg PO, no co-treatment, mean (SD)
# [9] = female wild-type C57BL/6 mice, ibrutinib 10 mg/kg PO, no co-treatment, mean (SD)
# [10] = female wild-type DBA mice, ibrutinib 10 mg/kg PO, no co-treatment, mean (SD)
# [11] = female wild-type FVB mice, ibrutinib 4 mg/kg oral, cotreatment cobicistat 30 mg/kg, mean (SE)
# [12] = female wild-type FVB mice, ibrutinib 10 mg/kg oral single dose, cotreatment cobicistat 30 mg/kg, mean (SE)
# [13] = female wild-type FVB mice, ibrutinib 10 mg/kg oral single dose, cotreatment corn oil, mean (SE)
# [14] = female wild-type FVB mice, ibrutinib 10 mg/kg oral, cotreatment PEG400, mean (SE)
# [15] = female wild-type FVB mice, ibrutinib 10 mg/kg oral, cotreatment cobicistat 30 mg/kg, steady-state, mean (SE)
# [16] = female wild-type FVB mice, ibrutinib 10 mg/kg oral, cotreatment corn oil, steady-state, mean (SE)
# [17] = female wild-type FVB mice, ibrutinib 10 mg/kg oral, cotreatment ketoconazole 50 mg/kg, mean (SE)
# [18] = female wild-type FVB mice, ibrutinib 10 mg/kg oral, no cotreatment, mean (SE)
# [19] = female wild-type FVB mice, ibrutinib 30 mg/kg oral, no cotreatment, mean (SE)
# [20] = male OATP2B1(-/-) mice, ibrutinib 10 mg/kg PO, no co-treatment, mean (SD)
# [21] = male wild-type C57BL/6 mice, ibrutinib 10 mg/kg PO, no co-treatment, mean (SD)
# [22] = male wild-type FVB mice, ibrutinib 10 mg/kg PO, co-treatment No Vehicle (cobicistat experiment), mean (SD)
# [23] = male wild-type FVB mice, ibrutinib 10 mg/kg PO, co-treatment None (ketoconazole experiment), mean (SD)
# [24] = male wild-type FVB mice, ibrutinib 10 mg/kg PO, co-treatment PEG400, mean (SD)
# [25] = male wild-type FVB mice, ibrutinib 10 mg/kg PO, co-treatment cobicistat, mean (SD)
# [26] = male wild-type FVB mice, ibrutinib 10 mg/kg PO, co-treatment corn oil, mean (SD)
# [27] = male wild-type FVB mice, ibrutinib 10 mg/kg PO, co-treatment ketoconazole, mean (SD)
smiles,measurement,setting,value
Nc1ncnc2c1c(-c1ccc(Oc3ccccc3)cc1)nn2[C@@H]1CCCN(C(=O)C(O)CO)C1 (some centres unmarked) [PCI-45227],B/P ratio,[1]; blood to plasma ratio,0.790
same,"fu, plasma",[1]; unbound drug in the plasma,0.056
same,levels of PCI-45227,"[2]; CYP3A-/- mice, oral ibrutinib",almost undetectable levels
same,PCI-45227: Ibrutinib AUC ratio,"[2]; female CYP3A-/- mice, ibrutinib 10 mg/kg oral, no cotreatment",0.003
same,PCI-45227 AUC(0-last),[2]; [6],6.3 (1.7)^c ng/h/mL
same,PCI-45227 Cmax,[2]; [6],8.2 (2.1)^c ng/mL
same,PCI-45227: Parent AUC Ratio,"[2]; female OATP1B2(-/-) mice, ibrutinib 10 mg/kg PO, no co-treatment",0.14
same,PCI-45227 AUC(0-last),[2]; [7],304 (12) ng*hr/mL
same,PCI-45227 Cmax,[2]; [7],157 (9) ng/mL
same,PCI-45227: Parent AUC Ratio,"[2]; female OATP2B1(-/-) mice, ibrutinib 10 mg/kg PO, no co-treatment",1.1
same,PCI-45227 AUC(0-last),[2]; [8],1952 (168)** ng*hr/mL
same,PCI-45227 Cmax,[2]; [8],745 (115)** ng/mL
same,PCI-45227: Parent AUC Ratio,"[2]; female wild-type C57BL/6 mice, ibrutinib 10 mg/kg PO, no co-treatment",2.1
same,PCI-45227 AUC(0-last),[2]; [9],3007 (236) ng*hr/mL
same,PCI-45227 Cmax,[2]; [9],1373 (70) ng/mL
same,PCI-45227: Parent AUC Ratio,"[2]; female wild-type DBA mice, ibrutinib 10 mg/kg PO, no co-treatment",0.12
same,PCI-45227 AUC(0-last),[2]; [10],343 (52) ng*hr/mL
same,PCI-45227 Cmax,[2]; [10],234 (47) ng/mL
same,PCI-45227: Ibrutinib AUC ratio,"[2]; female wild-type FVB mice, ibrutinib 4 mg/kg oral, cotreatment cobicistat 30 mg/kg",0.05
same,PCI-45227 AUC(0-last),[2]; [11],56 (22)^c ng/h/mL
same,PCI-45227 Cmax,[2]; [11],30.7 (12.1)^c ng/mL
same,PCI-45227: Ibrutinib AUC ratio,"[2]; female wild-type FVB mice, ibrutinib 10 mg/kg oral single dose, cotreatment cobicistat 30 mg/kg",0.05
same,PCI-45227 AUC(0-last),[2]; [12],139 (56)^c ng/h/mL
same,PCI-45227 Cmax,[2]; [12],45 (14)^c ng/mL
same,PCI-45227: Ibrutinib AUC ratio,"[2]; female wild-type FVB mice, ibrutinib 10 mg/kg oral single dose, cotreatment corn oil",2.0
same,PCI-45227 AUC(0-last),[2]; [13],563 (91)^d ng/h/mL
same,PCI-45227 Cmax,[2]; [13],219 (61)^b ng/mL
same,PCI-45227: Ibrutinib AUC ratio,"[2]; female wild-type FVB mice, ibrutinib 10 mg/kg oral, cotreatment PEG400",0.87
same,PCI-45227 AUC(0-last),[2]; [14],668 (155) ng/h/mL
same,PCI-45227 Cmax,[2]; [14],246 (54) ng/mL
same,PCI-45227: Ibrutinib AUC ratio,"[2]; female wild-type FVB mice, ibrutinib 10 mg/kg oral, cotreatment cobicistat 30 mg/kg, steady-state",0.25
same,PCI-45227 AUC(0-last),[2]; [15],560 (73)^b ng/h/mL
same,PCI-45227 Cmax,[2]; [15],211 (65) ng/mL
same,PCI-45227: Ibrutinib AUC ratio,"[2]; female wild-type FVB mice, ibrutinib 10 mg/kg oral, cotreatment corn oil, steady-state",2.0
same,PCI-45227 AUC(0-last),[2]; [16],917 (128) ng/h/mL
same,PCI-45227 Cmax,[2]; [16],405 (74) ng/mL
same,PCI-45227: Ibrutinib AUC ratio,"[2]; female wild-type FVB mice, ibrutinib 10 mg/kg oral, cotreatment ketoconazole 50 mg/kg",0.08
same,PCI-45227 AUC(0-last),[2]; [17],682 (250) ng/h/mL
same,PCI-45227 Cmax,[2]; [17],288 (89) ng/mL
same,PCI-45227: Ibrutinib AUC ratio,"[2]; female wild-type FVB mice, ibrutinib 10 mg/kg oral, no cotreatment",2.5
same,PCI-45227 AUC(0-last),[2]; [18],765 (79) ng/h/mL
same,PCI-45227 Cmax,[2]; [18],447 (45) ng/mL
same,PCI-45227: Ibrutinib AUC ratio,"[2]; female wild-type FVB mice, ibrutinib 30 mg/kg oral, no cotreatment",1.9
same,PCI-45227 AUC(0-last),[2]; [19],"3,281 (154) ng/h/mL"
same,PCI-45227 Cmax,[2]; [19],837 (77) ng/mL
same,PCI-45227: Parent AUC Ratio,"[2]; male OATP2B1(-/-) mice, ibrutinib 10 mg/kg PO, no co-treatment",1.3
same,PCI-45227 AUC(0-last),[2]; [20],2236 (160)*** ng*hr/mL
same,PCI-45227 Cmax,[2]; [20],850 (96)* ng/mL
same,PCI-45227: Parent AUC Ratio,"[2]; male wild-type C57BL/6 mice, ibrutinib 10 mg/kg PO, no co-treatment",2.4
same,PCI-45227 AUC(0-last),[2]; [21],3338 (239) ng*hr/mL
same,PCI-45227 Cmax,[2]; [21],1252 (97) ng/mL
same,PCI-45227: Parent AUC Ratio,"[2]; male wild-type FVB mice, ibrutinib 10 mg/kg PO, co-treatment No Vehicle (cobicistat experiment)",2.8
same,PCI-45227 AUC(0-last),[2]; [22],1463 (83) ng*hr/mL
same,PCI-45227 Cmax,[2]; [22],578 (100) ng/mL
same,PCI-45227: Parent AUC Ratio,"[2]; male wild-type FVB mice, ibrutinib 10 mg/kg PO, co-treatment None (ketoconazole experiment)",2.5
same,PCI-45227 AUC(0-last),[2]; [23],1080 (153) ng*hr/mL
same,PCI-45227 Cmax,[2]; [23],333 (112) ng/mL
same,PCI-45227: Parent AUC Ratio,"[2]; male wild-type FVB mice, ibrutinib 10 mg/kg PO, co-treatment PEG400",1.5
same,PCI-45227 AUC(0-last),[2]; [24],929 (164) ng*hr/mL
same,PCI-45227 Cmax,[2]; [24],293 (69) ng/mL
same,PCI-45227: Parent AUC Ratio,"[2]; male wild-type FVB mice, ibrutinib 10 mg/kg PO, co-treatment cobicistat",0.096
same,PCI-45227 AUC(0-last),[2]; [25],417 (60)*** ng*hr/mL
same,PCI-45227 Cmax,[2]; [25],124 (34)* ng/mL
same,PCI-45227: Parent AUC Ratio,"[2]; male wild-type FVB mice, ibrutinib 10 mg/kg PO, co-treatment corn oil",1.7
same,PCI-45227 AUC(0-last),[2]; [26],1124 (152)^a ng*hr/mL
same,PCI-45227 Cmax,[2]; [26],308 (70) ng/mL
same,PCI-45227: Parent AUC Ratio,"[2]; male wild-type FVB mice, ibrutinib 10 mg/kg PO, co-treatment ketoconazole",0.14
same,PCI-45227 AUC(0-last),[2]; [27],911 (94) ng*hr/mL
same,PCI-45227 Cmax,[2]; [27],236 (37) ng/mL
same,levels of PCI-45227,"[2]; mice lacking OATP2B1 vs wild-type, ibrutinib 10 mg/kg orally, P < 0.05",decreased
same,levels of PCI-45227 and PCI-45227-to-ibrutinib ratio,"[2]; wild-type mice, cobicistat pretreatment",significantly decreased
same,PCI-45227: Parent AUC Ratio,[3]; co-treatment cobicistat,0.04
same,PCI-45227 AUC(0-last),[3]; co-treatment cobicistat,38 (27) ng*hr/mL
same,PCI-45227 Cmax,[3]; co-treatment cobicistat,25 (11) ng/mL
same,PCI-45227 AUC(0-last),[3]; co-treatment corn oil,311 (15) ng*hr/mL
same,PCI-45227 Cmax,[3]; co-treatment corn oil,197 (5) ng/mL
same,IIV CLm,[4]; inter-individual variability,0.0242
same,IIV Vm,[4]; inter-individual variability,1.38
same,Fmet (metabolism of PCI-45227),[4],0.0216
same,Vm (volume of distribution for the central compartment of PCI-45227),[4],0.0578
same,RV PCI,[4]; residual variability,0.730
same,pKa,[5]; acid dissociation constant,4.06
same,Log Po:w,[5]; octanol/water partition coefficient,2.21
